In US20250221922A1, “ORAL CARE COMPOSITIONS CONTAINING RHAMNOLIPIDS” (Stepan Company, priority 2022, published 2025):

Test: Flavor Solubilization (mint flavor oils)
Format: physicochemical
Conditions: premix at the solubilization ratio
Procedure: The ability of the rhamnolipid mixture to solubilize an oil-based flavorant, such as a mint oil flavorant, was tested. The rhamnolipid composition tested was Sample 3 used above for Porphyromonas gingivalis.
Functionality was determined through a series of dilutions using the rhamnolipid mixture as a potential solubilizer component for flavor oils in the absence of synthetic or other solubilizers. The rhamnolipid composition was compared with polysorbate 20, which is a synthetic solubilizer and the industry standard for oil solubilization for flavors. Common mint flavors, such as Mint #244456 and Mint #244455 from Belle Aire Creations, were used as the flavor oils.
The rhamnolipid composition was added to each of the flavor oils in increasing amounts in order to determine the solubilizer component to flavor oil ratio at which a clear premix was obtained. Once a clear premix was obtained, that premix was then added to deionized water to ensure that the final solution was crystal clear.

polysorbate 20
appearance of final solution of the premix in deionized water: crystal clear
